Values of other authors as cited in patent US20250262166A1, “NANOPARTICLES COMPRISING ENZALUTAMIDE” (priority 2019, published 2025).

- solubility in water: insoluble in water
SMILES: CNC(=O)c1ccc(N2C(=S)N(c3ccc(C#N)c(C(F)(F)F)c3)C(=O)C2(C)C)cc1F [Enzalutamide]
